Assays:
HEK293 [1] = test: Inhibition of mouse GAT4-mediated [3H]GABA uptake expressed in human HEK cells assessed as specific binding remaining at 1 mM; type: cell-based
[2] = target: Sodium- and chloride-dependent GABA transporter 1 (Mus musculus) (UniProt P31648); test: Inhibition of mouse GAT1-mediated [3H]GABA uptake expressed in human HEK cells assessed as specific binding remaining at 1 mM; type: cell-based; conditions: HEK293
cells = type: cell-based; conditions: HEK293, 3 h
[3] = target: Sodium- and chloride-dependent GABA transporter 1 (Mus musculus, UniProt P31648); type: cell-based, HEK293
[4] = target: T1, GABA transporter 3 (Mus musculus) (UniProt P31649); test: Inhibition of mouse GAT2-mediated [3H]GABA uptake expressed in human HEK cells assessed as specific binding remaining at 100 µM; conditions: HEK293
T1 sequence (whole entry): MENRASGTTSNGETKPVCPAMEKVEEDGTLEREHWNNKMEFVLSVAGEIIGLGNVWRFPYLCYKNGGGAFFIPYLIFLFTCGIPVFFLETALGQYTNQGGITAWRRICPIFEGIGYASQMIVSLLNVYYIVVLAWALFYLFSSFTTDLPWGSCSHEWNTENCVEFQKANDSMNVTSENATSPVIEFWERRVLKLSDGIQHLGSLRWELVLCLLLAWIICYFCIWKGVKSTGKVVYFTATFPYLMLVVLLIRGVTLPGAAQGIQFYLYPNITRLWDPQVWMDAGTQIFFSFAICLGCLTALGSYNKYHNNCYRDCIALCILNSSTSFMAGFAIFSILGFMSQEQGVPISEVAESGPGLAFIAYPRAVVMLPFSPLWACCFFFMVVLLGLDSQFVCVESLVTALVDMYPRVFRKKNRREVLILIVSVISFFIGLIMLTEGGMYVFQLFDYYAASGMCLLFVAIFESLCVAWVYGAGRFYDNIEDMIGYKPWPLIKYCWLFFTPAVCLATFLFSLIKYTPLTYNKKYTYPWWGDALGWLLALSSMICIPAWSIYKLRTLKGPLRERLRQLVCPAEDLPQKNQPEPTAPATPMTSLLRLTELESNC

HEK293 [5] = test: Inhibition of mouse GAT4-mediated [3H]GABA uptake expressed in human HEK cells assessed as specific binding remaining at 100 µM
[6] = target: Sodium- and chloride-dependent GABA transporter 1 (Mus musculus) (UniProt P31648); test: Inhibition of mouse GAT1-mediated [3H]GABA uptake expressed in human HEK cells assessed as specific binding remaining at 100 µM; conditions: HEK293
[7] = target: T2, GABA transporter 4 (Mus musculus) (UniProt P31650); test: Inhibition of mouse GAT3-mediated [3H]GABA uptake expressed in human HEK cells assessed as specific binding remaining at 100 µM; conditions: HEK293
T2 sequence (whole entry): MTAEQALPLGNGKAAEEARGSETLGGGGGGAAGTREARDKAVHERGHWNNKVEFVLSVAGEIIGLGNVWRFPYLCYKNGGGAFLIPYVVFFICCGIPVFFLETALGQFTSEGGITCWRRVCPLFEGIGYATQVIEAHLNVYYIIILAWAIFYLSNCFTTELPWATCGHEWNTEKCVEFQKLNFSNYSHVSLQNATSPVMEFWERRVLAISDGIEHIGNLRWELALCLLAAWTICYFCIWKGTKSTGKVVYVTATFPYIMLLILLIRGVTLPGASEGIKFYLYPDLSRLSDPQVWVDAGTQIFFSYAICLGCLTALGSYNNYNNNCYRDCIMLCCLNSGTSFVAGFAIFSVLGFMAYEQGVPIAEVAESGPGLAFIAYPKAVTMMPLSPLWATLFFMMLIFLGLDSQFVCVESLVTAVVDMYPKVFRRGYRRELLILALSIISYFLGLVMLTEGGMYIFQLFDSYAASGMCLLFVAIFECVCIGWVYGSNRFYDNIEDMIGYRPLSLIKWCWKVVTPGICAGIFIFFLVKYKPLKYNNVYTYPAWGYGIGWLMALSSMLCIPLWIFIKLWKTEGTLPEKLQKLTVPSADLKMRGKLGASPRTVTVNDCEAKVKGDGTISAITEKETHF

| Activity [2] [%] | IC50 (cells; read-out: pIC50 (converted)) [µM] | IC50 ([3]; read-out: pIC50 (converted)) [µM] | Structure (SMILES) | Activity (HEK293 [1]) [%] | further results |
| --- | --- | --- | --- | --- | --- |
| 73.3 |  |  | O=C(O)/C=C/c1ncc[nH]1 | 47.2 |  |
|  |  |  | NCCCCCC(=O)O | 65.1 |  |
| 90.8 |  |  | O=C(O)c1c[nH]cn1 | 85.5 |  |
| 73.3 | 617 |  | O=C(O)Cn1ccnc1 |  |  |
|  | 437 | 724 | O=C(O)CCCCc1ncc[nH]1 |  |  |
|  | 224 | 115 | O=C(O)CCCCn1ccnc1 |  |  |
|  | 209 | 123 | O=C(O)/C=C/CCc1c[nH]cn1 |  |  |
|  | 501 |  | NCCCCC(=O)O [5-AMINOVALERIC ACID] |  |  |
|  |  |  | NCCCCCCC(=O)O | 84.3 |  |
|  | 38 | 117 | O=C(O)CCCn1ccnc1 |  |  |
| 102 |  |  | O=C(O)/C=C\c1ncc[nH]1 | 93.6 |  |
|  |  |  | COc1ccc(C2(O)CCN(CCCn3c4ccccc4c4ccccc43)CC2)cc1 |  | IC50 (cells; read-out: IC50): 15 µM; IC50 ([3]; read-out: IC50): 19 µM |
| 59 |  |  | O=C(O)C1CCCc2[nH]cnc21 (stereo unspecified) | 81.6 |  |
|  | 234 | 1020 | O=C(O)CCCCCn1ccnc1 |  |  |
| 61.7 | 81.3 |  | O=C(O)CCc1c[nH]cn1 |  |  |
| 68.3 |  |  | O=C(O)CCCCCCCn1ccnc1 | 58.6 |  |
|  |  | 417 | O=C(O)CCCCc1c[nH]cn1 | 64.7 |  |
|  | 52.5 | 417 | O=C(O)CCCc1c[nH]cn1 |  |  |
|  |  |  | Cc1ccsc1C(=CCCN(C)C1CCCc2onc(O)c21)c1sccc1C (stereo unspecified) |  | IC50 (cells; read-out: IC50): > 300 µM; IC50 ([3]; read-out: IC50): 4 µM |
|  |  | 676 | O=C(O)CCCCCCn1ccnc1 | 71.1 |  |
|  |  |  | COc1ccc(C(OCCN2CCC[C@H](C(=O)O)C2)(c2ccc(OC)cc2)c2ccc(OC)cc2)cc1 |  | IC50 (cells; read-out: IC50): 3 µM |
| 62.3 | 513 |  | O=C(O)CCCc1ncc[nH]1 |  |  |
|  |  |  | O=C(O)c1ccc2[nH]cnc2c1 |  | Activity [4]: 74.2%; Activity (HEK293 [5]): 67.8%; Activity [6]: 108%; Activity [7]: 103% |
| 85 |  |  | O=C(O)C1CCc2[nH]cnc2C1 (stereo unspecified) | 82.4 |  |
| 54.8 |  |  | O=C(O)/C=C/c1c[nH]cn1 | 95.8 |  |
|  | 3090 |  | NCC(=O)O [GLYCINE] |  |  |
|  |  |  | O=C(O)c1ncc[nH]1 | 98.6 |  |
|  |  |  | O=C(O)c1cccc2[nH]cnc12 |  | Activity [4]: 94.2%; Activity (HEK293 [5]): 68.2%; Activity [6]: 95.9%; Activity [7]: 78.2% |
| 72 | 191 |  | O=C(O)CCn1ccnc1 |  |  |
|  | 309 | 324 | O=C(O)/C=C/CCc1ncc[nH]1 |  |  |

| Structure (SMILES) | Activity [2] [%] | IC50 (cells; read-out: pIC50 (converted)) [µM] | IC50 ([3]; read-out: pIC50 (converted)) [µM] | Activity (HEK293 [1]) [%] | further results |
| --- | --- | --- | --- | --- | --- |
| O=C(O)Cc1c[nH]cn1 [IMIDAZOLE ACETIC ACID] |  | 46.8 | 617 |  |  |
| NCCC(=O)O [BETA-ALANINE] |  | 34.7 | 2570 |  |  |
| O=C(O)CCc1ncc[nH]1 | 62.8 | 309 |  |  |  |
| O=C(O)Cc1ncc[nH]1 | 75.3 |  |  | 63.4 |  |
